Test results: US9594084B2, “Phosphorylation of histones and uses thereof” (H. LEE MOFFITT CANCER CENTER AND RESEARCH INSTITUTE, priority 2012, dated 2017)
Entries after “also recorded” stand apart in the source; their conditions may differ.

Key:
Xenopus laevis embryos = test system: Xenopus laevis embryos
From the text: Table 4 provides the phenotype distribution for surviving embryos (raw data are identical to those in Table 3).

Ack1 [1] = molecular target: T1, Ack1 (Homo sapiens, UniProt Q07912); format: biochemical
T1 sequence (Q07912 whole entry): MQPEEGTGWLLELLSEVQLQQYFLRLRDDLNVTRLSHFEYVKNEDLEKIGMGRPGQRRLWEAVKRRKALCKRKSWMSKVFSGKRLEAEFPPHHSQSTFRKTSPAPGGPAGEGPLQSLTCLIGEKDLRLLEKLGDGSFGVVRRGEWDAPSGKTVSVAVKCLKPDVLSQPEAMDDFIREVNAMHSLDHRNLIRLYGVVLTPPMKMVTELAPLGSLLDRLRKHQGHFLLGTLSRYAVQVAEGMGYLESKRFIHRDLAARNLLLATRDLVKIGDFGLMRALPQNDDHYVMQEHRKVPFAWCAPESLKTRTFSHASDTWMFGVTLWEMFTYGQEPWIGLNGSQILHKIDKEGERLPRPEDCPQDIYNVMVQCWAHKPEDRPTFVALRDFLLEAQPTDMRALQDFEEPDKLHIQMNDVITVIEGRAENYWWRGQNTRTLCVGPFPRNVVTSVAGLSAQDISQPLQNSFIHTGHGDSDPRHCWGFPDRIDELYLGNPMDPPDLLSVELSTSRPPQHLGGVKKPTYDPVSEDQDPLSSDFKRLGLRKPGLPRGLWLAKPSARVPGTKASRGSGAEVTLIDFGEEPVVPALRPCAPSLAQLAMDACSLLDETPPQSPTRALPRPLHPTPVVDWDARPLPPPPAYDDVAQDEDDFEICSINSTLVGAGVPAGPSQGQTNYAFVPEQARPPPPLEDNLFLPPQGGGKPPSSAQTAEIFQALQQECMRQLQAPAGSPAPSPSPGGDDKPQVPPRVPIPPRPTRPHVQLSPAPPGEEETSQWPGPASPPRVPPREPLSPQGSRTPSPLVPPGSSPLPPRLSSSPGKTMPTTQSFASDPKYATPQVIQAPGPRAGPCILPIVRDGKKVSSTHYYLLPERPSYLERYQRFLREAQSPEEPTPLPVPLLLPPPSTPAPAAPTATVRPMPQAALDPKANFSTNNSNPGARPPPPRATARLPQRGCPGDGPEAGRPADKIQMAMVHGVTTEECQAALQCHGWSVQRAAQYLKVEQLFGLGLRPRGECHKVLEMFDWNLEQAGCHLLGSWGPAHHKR
Procedure: Purified histone H3 and Ack1 were incubated at 37° C. for 1 hour with or without AIM-100 followed by immunoblotting with indicated antibodies.

[2] = test system: pTyr-AR recruitment to PSA, NKX3,1 and TMPRSS2 promoters; test: ChIP-qPCR for pTyr267-AR binding to PSA, NKX3.1 and TMPRSS2 AREs in LAPC4 cells; format: cell-based; conditions: EGF (10 ng/ml, 1 hr), AIM-100 0.8 μM, 16 hr
Procedure: FIG. 8A-8C are bar graphs showing Ack1 inhibition by AIM-100 suppressed recruitment of pTyr-AR to PSA (FIG. 8A), NKX3.1 (FIG. 8B) and TMPRSS2 (FIG. 8C) promoters. LAPC4 cells were treated with DHT (5 nM, 16 hr) or EGF (10 ng/ml, 1 hr), and AIM-100 (0.8 μM, 16 hr) and ChIP analysis for pTyr267-AR binding to the PSA, NKX3.1 and TMPRSS2 AREs was performed followed by qPCR. *p=0.001; **p=0.006; ***p=0.014.
LAPC4 cells were treated with DHT (5 nM, 16 hr), EGF (10 ng/ml, 1 hr), or EGF and AIM-100 (0.8 μM, 16 hr) and ChIP analysis for pTyr267-AR binding to the PSA, NKX3.1 and TMPRSS2 AREs was performed followed by qPCR. Ack1 inhibition by AIM-100 suppressed recruitment of pTyr-AR to PSA, NKX3,1 and TMPRSS2 promoters (FIGS. 8A-8C).

[3] = test system: LNCaP-caAck expressing cells; test: LNCaP-caAck prostate xenograft tumor growth in castrated nude male mice; format: in vivo; conditions: 4 mg/kg of body weight per injection, five times
Procedure: FIG. 9 is a line graph showing prostate xenograft tumor volume (mm^3) in castrated nude male mice treated with AIM-100 Ack1 inhibitor or DMSO control. Castrated nude male mice were injected with LNCaP-caAck expressing cells. Mice were injected with AIM-100 (4 mg/kg of body weight per injection) on five times (n=8) and tumor volumes were measured.
Castrated nude male mice were injected with LNCaP-caAck expressing cells. Mice were injected with AIM-100 (4 mg/kg of body weight per injection) on five times (n=8) and tumor volumes were measured.

H3K9 and K27 methylation = test: Immunoblot of H3K9/H3K27 methylation in LAPC4 cells; format: cell-based
Procedure: FIG. 25 is an immunoblot of lysates from LAPC4 cells that were untreated (column 1), treated with EGF (column 2), or treated with EGF and AIM-100 (column 3) that were immunoblotted with H3K9 dimethyl (top panel), H3K27 (middle panel), or H3 (bottom panel) antibodies.
The prostate cancer derived cells, LAPC4 were treated with AIM-100 (7 uM, 16 hours). The equal amount of cell lysates were subjected to immunoblotting with H3K9me3 and histone H3 antibodies. […] The histone H3 antibodies were used as a control to indicate equal amount of protein.
LAPC4 cells were treated with EGF or EGF and AIM-100 and the lysates were immunoblotted with H3K9 dimethyl and H3K27 dimethyl antibodies. Thus, marking of chromatin with H3-Tyr99-phosphorylation within AR-target gene promoters may suppress repressive dimethylation leading to transcriptional activation in androgen-deprived environment of prostate tumors.
LAPC4 cells were treated with EGF or EGF and AIM-100 and the lysates were immunoblotted with H3K9 and H3K27 antibodies. Thus, marking of chromatin with H3-Tyr99-phosphorylation within AR-target gene promoters may suppress repressive dimethylation leading to transcriptional activation in androgen-deprived environment of prostate tumors.

Ack1 [4] = molecular target: T2, Ack1 (Homo sapiens, UniProt Q07912, E346K); format: biochemical; conditions: 5 uM for 1 hour at 30° C.
T2 construct: HA; made in house
T2 sequence (Q07912 whole entry E346K): as the sequence (Q07912 whole entry) above, with E346K counted along it

Ack1 [5] = molecular target: T1, Ack1; format: biochemical; conditions: ELISA, read at 450 nm
Procedure: WEE1 and Ack1 are two non-receptor tyrosine kinases or NRTKs that have known nuclear functions. To determine whether WEE1 and Ack1 can directly target H4 for Tyr88-phosphorylation, this study performed in vitro kinase assay. In brief, the Streptavidin coated 96-well plates (R&D systems) were incubated with biotinylated H4-derived peptide […] (SEQ ID NO: 64) for 1 hour. The plates were washed and the purified WEE1 or Ack1 were added in kinase buffer (20 mM HEPES, 150 mM NaCl, 0.5% Triton X-100, 10% Glycerol, phosphatase and protease inhibitors) containing ATP and MgCl2. After 2 hours of incubation, plates were washed with phosphate buffered saline containing 0.1% Tween 20 (PBST) and blocked in 3% BSA. The pY88-H4 antibodies (at 1:500 dilution) were added and incubated for 1 hour. Unbound antibodies were washed and HRP-conjugated anti-mouse secondary Antibodies (1:2000) were added. Magnitude of phosphorylation was detected using developer solution (OPD tablets, Sigma) and the plates were read at 450 nm. As a negative control, no kinase and no peptide reactions were used. The biotinylated phosphopeptide […]p[…] (SEQ ID NO: 65) was used as a positive control.

ATM = molecular target: T3, ATM (Homo sapiens, UniProt Q13315); test: IR-induced de-phosphorylation of pY37-H2B in H1975 cells (immunoblot); format: cell-based; conditions: H1975 irradiated (15GY)
T3 construct: endogenous in cells; host or cells: H1975
T3 sequence (Q13315 whole entry): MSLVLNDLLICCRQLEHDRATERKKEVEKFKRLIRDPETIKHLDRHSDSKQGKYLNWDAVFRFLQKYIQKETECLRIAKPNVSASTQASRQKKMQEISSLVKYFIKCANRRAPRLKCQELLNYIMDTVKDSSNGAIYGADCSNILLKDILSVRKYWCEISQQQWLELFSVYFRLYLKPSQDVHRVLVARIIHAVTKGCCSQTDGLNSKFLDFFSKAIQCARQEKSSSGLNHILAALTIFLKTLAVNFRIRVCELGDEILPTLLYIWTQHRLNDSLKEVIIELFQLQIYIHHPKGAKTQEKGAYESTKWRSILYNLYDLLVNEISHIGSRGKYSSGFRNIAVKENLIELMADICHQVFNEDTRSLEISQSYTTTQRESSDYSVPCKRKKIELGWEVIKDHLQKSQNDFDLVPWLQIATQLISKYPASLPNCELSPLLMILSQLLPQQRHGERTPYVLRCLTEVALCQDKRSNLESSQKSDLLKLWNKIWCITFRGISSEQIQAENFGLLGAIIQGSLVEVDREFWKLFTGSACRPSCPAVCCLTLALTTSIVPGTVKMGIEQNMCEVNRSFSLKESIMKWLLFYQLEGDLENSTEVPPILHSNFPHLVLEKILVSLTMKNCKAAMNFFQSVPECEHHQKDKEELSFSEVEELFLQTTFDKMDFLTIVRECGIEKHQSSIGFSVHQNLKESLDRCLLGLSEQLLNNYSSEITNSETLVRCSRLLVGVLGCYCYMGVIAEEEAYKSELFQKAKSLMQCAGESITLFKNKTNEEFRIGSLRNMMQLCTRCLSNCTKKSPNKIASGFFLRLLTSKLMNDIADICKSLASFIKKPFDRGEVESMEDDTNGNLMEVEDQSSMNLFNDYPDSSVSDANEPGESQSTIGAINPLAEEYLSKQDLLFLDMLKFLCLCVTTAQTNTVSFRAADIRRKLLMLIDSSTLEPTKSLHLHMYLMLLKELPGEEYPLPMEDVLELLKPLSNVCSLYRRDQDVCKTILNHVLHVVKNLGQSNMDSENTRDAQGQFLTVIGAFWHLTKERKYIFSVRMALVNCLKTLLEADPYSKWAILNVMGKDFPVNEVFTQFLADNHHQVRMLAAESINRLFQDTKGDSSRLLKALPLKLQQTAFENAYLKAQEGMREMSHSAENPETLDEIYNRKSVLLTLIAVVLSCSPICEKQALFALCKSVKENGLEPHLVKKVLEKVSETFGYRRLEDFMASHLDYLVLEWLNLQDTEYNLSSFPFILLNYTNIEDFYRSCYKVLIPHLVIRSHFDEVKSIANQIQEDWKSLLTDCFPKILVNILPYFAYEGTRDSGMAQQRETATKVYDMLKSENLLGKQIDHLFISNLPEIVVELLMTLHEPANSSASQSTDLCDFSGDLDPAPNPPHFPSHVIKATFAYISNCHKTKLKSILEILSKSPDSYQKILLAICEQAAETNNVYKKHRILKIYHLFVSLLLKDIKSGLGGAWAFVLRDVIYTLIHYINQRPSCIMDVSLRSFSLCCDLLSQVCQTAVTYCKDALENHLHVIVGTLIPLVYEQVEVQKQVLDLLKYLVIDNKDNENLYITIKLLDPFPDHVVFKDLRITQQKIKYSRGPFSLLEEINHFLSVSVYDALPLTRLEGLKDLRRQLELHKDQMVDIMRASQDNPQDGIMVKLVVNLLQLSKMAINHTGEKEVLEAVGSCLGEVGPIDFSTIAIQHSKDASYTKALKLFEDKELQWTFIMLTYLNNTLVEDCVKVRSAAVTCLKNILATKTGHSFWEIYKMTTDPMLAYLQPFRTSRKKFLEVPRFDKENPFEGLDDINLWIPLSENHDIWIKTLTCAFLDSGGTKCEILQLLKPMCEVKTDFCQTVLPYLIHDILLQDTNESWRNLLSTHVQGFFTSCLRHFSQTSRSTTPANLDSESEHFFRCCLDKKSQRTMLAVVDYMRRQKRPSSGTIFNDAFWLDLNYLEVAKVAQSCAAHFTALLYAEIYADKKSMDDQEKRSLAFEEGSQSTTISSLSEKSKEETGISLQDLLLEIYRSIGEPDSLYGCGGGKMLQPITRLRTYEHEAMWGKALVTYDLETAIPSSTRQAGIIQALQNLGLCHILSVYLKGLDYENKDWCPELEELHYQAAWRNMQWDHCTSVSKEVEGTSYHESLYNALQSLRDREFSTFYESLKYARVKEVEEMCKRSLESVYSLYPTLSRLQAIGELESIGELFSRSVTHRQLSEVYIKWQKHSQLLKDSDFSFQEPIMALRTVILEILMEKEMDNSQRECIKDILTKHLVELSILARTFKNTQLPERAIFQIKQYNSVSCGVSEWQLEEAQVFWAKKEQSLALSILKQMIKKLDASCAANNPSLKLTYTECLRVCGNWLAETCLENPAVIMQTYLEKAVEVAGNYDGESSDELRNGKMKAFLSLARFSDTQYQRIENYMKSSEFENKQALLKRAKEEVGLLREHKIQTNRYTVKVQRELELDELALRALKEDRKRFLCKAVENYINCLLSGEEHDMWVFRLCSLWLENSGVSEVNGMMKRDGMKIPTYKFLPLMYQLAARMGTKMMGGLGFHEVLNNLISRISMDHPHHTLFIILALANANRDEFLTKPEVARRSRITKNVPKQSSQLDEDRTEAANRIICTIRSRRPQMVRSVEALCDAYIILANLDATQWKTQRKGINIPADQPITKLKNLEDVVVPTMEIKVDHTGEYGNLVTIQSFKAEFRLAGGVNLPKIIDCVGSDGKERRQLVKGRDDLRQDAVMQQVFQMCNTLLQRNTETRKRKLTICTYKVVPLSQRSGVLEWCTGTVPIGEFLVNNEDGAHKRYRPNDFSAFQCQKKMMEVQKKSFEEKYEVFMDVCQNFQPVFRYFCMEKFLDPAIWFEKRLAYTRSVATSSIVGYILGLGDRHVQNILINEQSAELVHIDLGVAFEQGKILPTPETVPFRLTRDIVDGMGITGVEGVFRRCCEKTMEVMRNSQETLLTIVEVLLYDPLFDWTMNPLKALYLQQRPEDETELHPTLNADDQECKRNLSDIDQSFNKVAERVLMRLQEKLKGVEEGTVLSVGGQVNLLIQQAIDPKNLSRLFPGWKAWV
From the text: Whole cell extracts were immunoblotted with indicated antibodies.
To determine whether pY37-H2B de-phosphorylation is regulated by ATM recruited to the sites of DSBs by the MRN complex, Applicants treated the cells with the ATM inhibitor Ku55393. […] EYA in turn interacted with H2AX executing a damage-signal-dependent dephosphorylation of Tyr142, that is constitutively phosphorylated in the absence of DNA damage (Cook, P. J. et al. (2009) Nature, 458(7238):591-596).

[6] = Table 3, of total injected embryos

c1ccc(-c2oc3ncnc(NC[C@@H]4CCCO4)c3c2-c2ccccc2)cc1 [AIM-100]
abn/delay, gastrulation is abnormal or delayed (% of total) (Xenopus laevis embryos; [6]): (6.7%)
abn/delay, gastrulation is abnormal or delayed (number of embryos) (Xenopus laevis embryos; [6]): 15
dead (% of total) (Xenopus laevis embryos; [6]): (43%)
dead (number of embryos) (Xenopus laevis embryos; [6]): 97
epib blk, epiboly block phenotype (% of total) (Xenopus laevis embryos; [6]): (29%)
epib blk, epiboly block phenotype (number of embryos) (Xenopus laevis embryos; [6]): 65
epib red, partial phenotype (% of total) (Xenopus laevis embryos; [6]): (8%)
epib red, partial phenotype (number of embryos) (Xenopus laevis embryos; [6]): 18
norm. (% of total) (Xenopus laevis embryos; [6]): (11%)
norm. (number of embryos) (Xenopus laevis embryos; Table 3, of total injected embryos, antibodies 200 ng/em, AIM-100 200 pM/em): 24
abn/delay (% of survivors) (Xenopus laevis embryos; Table 4, surviving embryos): 12%
abn/delay (number of embryos) (Xenopus laevis embryos; Table 4, surviving embryos): 15
epib blk (number of embryos) (Xenopus laevis embryos; Table 4, surviving embryos): 65
epib red (number of embryos) (Xenopus laevis embryos; Table 4, surviving embryos): 18
normal (% of survivors) (Xenopus laevis embryos; Table 4, surviving embryos): 19%
normal (number of embryos) (Xenopus laevis embryos; Table 4, surviving embryos): 24
mortality rate (Xenopus laevis embryos; by the onset of gastrulation (~20 hours after microinjection at the 2-cell stage, 16° C.)): 43-45%
timing or pattern of early cleavages (Xenopus laevis embryos; injected embryos): did not alter
epib blk, epiboly block/involution failure (% of survivors) (Xenopus laevis embryos; surviving embryos): 51%
epib red, partial reduced epiboly phenotype (% of survivors) (Xenopus laevis embryos; surviving embryos): 14%
Ack1 phosphorylation of H3 at Tyr99 (Ack1 [1]): significantly compromised
recruitment of pTyr-AR to PSA, NKX3,1 and TMPRSS2 promoters [2]: suppressed
prostate xenograft tumor growth [3]: mitigated the growth; also recorded: partially suppresses
H3K9 and K27 dimethylation and trimethylation (H3K9 and K27 methylation): increased
H3 K9 trimethylation (H3K9 and K27 methylation; LAPC4 cells, 7 uM, 16 hours): increased; also recorded: significant increase
H3K9 and K27 dimethylation (H3K9 and K27 methylation; LAPC4 cells, EGF and AIM-100): increased
H4 pTyr51-phosphorylation by purified E346K-Ack1 (Ack1 [4]): abrogated
H4 Tyr88-phosphorylation by Ack1 (Ack1 [5]): significantly decreased

O=c1cc(-c2cccc3c2Sc2ccccc2S3)oc(N2CCOCC2)c1 [Ku55393]
IR-induced de-phosphorylation of pY37-H2B (ATM): prevented
